This test concerns CD8F1 mice, subcutaneous mammary adenocarcinoma, T/C%. Briefly: NCI In Vivo Anticancer Drug Screen. Data for tumor model Mammary Adenocarcinoma CD8F1 (subcutaneous) in CD8F1. The settings on record: higher = larger tumour. The method, boiled down: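 Mice carrying transplanted tumors received test compound, and survival or tumor size was recorded. Each value is the treated-group measurement divided by the corresponding measurement in vehicle-dosed controls.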

[1] abbreviates: endpoint: median tumor weight (est.), dose: 100.0 mg/kg/injection, schedule: Q07DX005 (ip), vehicle: Klucel (hydroxypropylcellulose) (HPC).
The mark [2] stands for this setting: endpoint: median tumor weight (est.), dose: 200.0 mg/kg/injection, schedule: Q07DX005 (ip), vehicle: Klucel (hydroxypropylcellulose) (HPC).
[3] abbreviates: endpoint: median tumor weight (est.), dose: 400.0 mg/kg/injection, schedule: Q07DX005 (ip), vehicle: Klucel (hydroxypropylcellulose) (HPC).
Setting [4] is: endpoint: median tumor weight (est.), dose: 800.0 mg/kg/injection, schedule: Q07DX005 (ip), vehicle: Klucel (hydroxypropylcellulose) (HPC).
[5] abbreviates: endpoint: median tumor weight change, dose: 125.0 mg/kg/injection, schedule: Q01DX001 (ip), vehicle: Klucel (hydroxypropylcellulose) (HPC).
[6] abbreviates: endpoint: median tumor weight change, dose: 250.0 mg/kg/injection, schedule: Q01DX001 (ip), vehicle: Klucel (hydroxypropylcellulose) (HPC).
The mark [7] stands for this setting: endpoint: median tumor weight change, dose: 500.0 mg/kg/injection, schedule: Q01DX001 (ip), vehicle: Klucel (hydroxypropylcellulose) (HPC).
Where [8] appears, read: endpoint: median tumor weight change, dose: 1000.0 mg/kg/injection, schedule: Q01DX001 (ip), vehicle: Klucel (hydroxypropylcellulose) (HPC).
Where [9] appears, read: endpoint: median tumor weight change, dose: 2000.0 mg/kg/injection, schedule: Q01DX001 (ip), vehicle: Klucel (hydroxypropylcellulose) (HPC).
Where [10] appears, read: endpoint: median tumor weight change, dose: 62.5 mg/kg/injection, schedule: Q01DX001 (ip), vehicle: Klucel (hydroxypropylcellulose) (HPC).
Setting [11] is: endpoint: median tumor weight (est.), dose: 25.0 mg/kg/injection, schedule: Q07DX005 (ip), vehicle: saline.
Setting [12] is: endpoint: median tumor weight (est.), dose: 100.0 mg/kg/injection, schedule: Q07DX005 (ip), vehicle: saline.
The mark [13] stands for this setting: endpoint: median tumor weight (est.), dose: 200.0 mg/kg/injection, schedule: Q07DX005 (ip), vehicle: saline.

Results filed as inconclusive are left out. Positions of bridges follow the written chain, without caps; N, C: chain ends. Residues, ends and D or L forms follow the SMILES beside them.

Consider `C[C@]12CCC(=O)C(O)=C1CC[C@@H]1[C@@H]2CC[C@]2(C)C(=O)CC[C@@H]12`, for which the T/C is 182 % of control (endpoint: median tumor weight (est.), dose: 100.0 mg/kg/injection, schedule: Q01DX001 (ip), vehicle: Klucel (hydroxypropylcellulose) (HPC)); 32 % of control under setting [1]; 9 % of control (endpoint: median tumor weight (est.), dose: 200.0 mg/kg/injection, schedule: Q01DX001 (ip), vehicle: Klucel (hydroxypropylcellulose) (HPC)); 62 % of control under setting [2]; 189 % of control (endpoint: median tumor weight (est.), dose: 400.0 mg/kg/injection, schedule: Q01DX001 (ip), vehicle: Klucel (hydroxypropylcellulose) (HPC)); 32 % of control under setting [3]. Besides, the T/C is, setting by setting: (endpoint: median tumor weight (est.), dose: 800.0 mg/kg/injection, schedule: Q01DX001 (ip), vehicle: Klucel (hydroxypropylcellulose) (HPC)) 68 % of control; under setting [4], 54 % of control; under setting [5], 78 % of control; under setting [6], 91 % of control; under setting [7], 72 % of control; under setting [8], 68 % of control. The T/C under setting [9] was 72 % of control.

With `CCOC(=O)C(C)(C)Oc1ccc(Cl)cc1`, the T/C is, setting by setting: (endpoint: median tumor weight (est.), dose: 12.5 mg/kg/injection, schedule: Q07DX005 (ip), vehicle: saline with Tween-80) 61 % of control; (endpoint: median tumor weight (est.), dose: 25.0 mg/kg/injection, schedule: Q07DX005 (ip), vehicle: saline with Tween-80) 113 % of control; (endpoint: median tumor weight (est.), dose: 50.0 mg/kg/injection, schedule: Q07DX005 (ip), vehicle: saline with Tween-80) 84 % of control; (endpoint: median tumor weight (est.), dose: 100.0 mg/kg/injection, schedule: Q07DX005 (ip), vehicle: saline with Tween-80) 72 % of control; (endpoint: median tumor weight (est.), dose: 200.0 mg/kg/injection, schedule: Q07DX005 (ip), vehicle: saline with Tween-80) 77 % of control; (endpoint: median tumor weight (est.), dose: 400.0 mg/kg/injection, schedule: Q07DX005 (ip), vehicle: saline with Tween-80) 64 % of control.

As for `CC1CCC2N(C1)CC1C3CC4C(CC(=O)C5CC(O)CCC54C)C3CCC1C2(C)O` (stereo not drawn), the T/C is, setting by setting: (endpoint: mean tumor weight, dose: 2.5 mg/kg/injection, schedule: Q07DX006 (ip), vehicle: saline with Tween-80) 87 % of control; (endpoint: mean tumor weight, dose: 5.0 mg/kg/injection, schedule: Q07DX006 (ip), vehicle: saline with Tween-80) 81 % of control; (endpoint: mean tumor weight, dose: 10.0 mg/kg/injection, schedule: Q07DX006 (ip), vehicle: saline with Tween-80) 90 % of control; (endpoint: mean tumor weight, dose: 20.0 mg/kg/injection, schedule: Q07DX006 (ip), vehicle: saline with Tween-80) 89 % of control.

For `Cn1cnc([N+](=O)[O-])c1SCC(=O)O`, the T/C under setting [1] was 100 % of control; the T/C under setting [2] was 107 % of control; the T/C under setting [3] was 166 % of control; the T/C under setting [4] is 65 % of control; the T/C under setting [10] is 75 % of control; the T/C under setting [5] was 72 % of control. Besides, the T/C reads like this: under setting [6], 76 % of control; under setting [7], 74 % of control; under setting [8], 60 % of control; under setting [9], 68 % of control.

On to `C[C@@H](CN1CC(=O)NC(=O)C1)N1CC(=O)NC(=O)C1`, for which the T/C under setting [11] is 75 % of control; the T/C (endpoint: median tumor weight (est.), dose: 50.0 mg/kg/injection, schedule: Q07DX005 (ip), vehicle: saline) is 39 % of control; the T/C under setting [1] was 52 % of control; the T/C under setting [12] is 85 % of control; the T/C under setting [2] is 107 % of control; the T/C under setting [13] is 46 % of control. For the same compound, the T/C runs as follows: under setting [3], 37 % of control; (endpoint: median tumor weight (est.), dose: 400.0 mg/kg/injection, schedule: Q07DX005 (ip), vehicle: saline) 45 % of control; under setting [4], 10 % of control; (endpoint: median tumor weight (est.), dose: 800.0 mg/kg/injection, schedule: Q07DX005 (ip), vehicle: saline) 13 % of control.

Regarding `COc1cccc(C2NC(=O)c3c(n[nH]c3N)S2)c1O` (stereo not drawn), the T/C is, setting by setting: (endpoint: median tumor weight change, dose: 112.5 mg/kg/injection, schedule: Q01DX001 (ip), vehicle: saline with Tween-80) 71 % of control; (endpoint: median tumor weight change, dose: 225.0 mg/kg/injection, schedule: Q01DX001 (ip), vehicle: saline with Tween-80) 91 % of control; (endpoint: median tumor weight change, dose: 450.0 mg/kg/injection, schedule: Q01DX001 (ip), vehicle: saline with Tween-80) 92 % of control; (endpoint: median tumor weight change, dose: 900.0 mg/kg/injection, schedule: Q01DX001 (ip), vehicle: saline with Tween-80) 76 % of control; (endpoint: median tumor weight change, dose: 1800.0 mg/kg/injection, schedule: Q01DX001 (ip), vehicle: saline with Tween-80) 79 % of control.

Turning to `COc1cccc2c1C(=N)c1c(O)c3c(c(O)c1C2=O)C[C@@](O)(C(C)=O)C[C@@H]3OC1CC(N)C(O)C(C)O1` (stereo partly drawn), the T/C is, setting by setting: (endpoint: median tumor weight (est.), dose: 2.0 mg/kg/injection, schedule: Q07DX005 (ip), vehicle: saline) 53 % of control; (endpoint: median tumor weight (est.), dose: 2.97 mg/kg/injection, schedule: Q07DX005 (ip), vehicle: saline) 50 % of control; (endpoint: median tumor weight (est.), dose: 3.0 mg/kg/injection, schedule: Q07DX005 (ip), vehicle: saline) 115 % of control; (endpoint: median tumor weight (est.), dose: 4.45 mg/kg/injection, schedule: Q07DX005 (ip), vehicle: saline) 53 % of control; (endpoint: median tumor weight (est.), dose: 4.5 mg/kg/injection, schedule: Q07DX005 (ip), vehicle: saline) 96 % of control.

With `CCC(C)C1NC(=O)C(CC(C)C)NC(=O)C(C(C)C)NC(=O)C2CSSCC(NC1=O)C(=O)N2` (stereo not drawn) (cyclo(CCVLI); disulfide 1-2; configuration not given here), the T/C runs as follows: (endpoint: median tumor weight change, dose: 0.31 mg/kg/injection, schedule: Q01DX001 (ip), vehicle: Klucel (hydroxypropylcellulose) (HPC)) 78 % of control; (endpoint: median tumor weight change, dose: 0.62 mg/kg/injection, schedule: Q01DX001 (ip), vehicle: Klucel (hydroxypropylcellulose) (HPC)) 118 % of control; (endpoint: median tumor weight change, dose: 1.25 mg/kg/injection, schedule: Q01DX001 (ip), vehicle: Klucel (hydroxypropylcellulose) (HPC)) 74 % of control; (endpoint: median tumor weight change, dose: 2.5 mg/kg/injection, schedule: Q01DX001 (ip), vehicle: Klucel (hydroxypropylcellulose) (HPC)) 94 % of control; (endpoint: median tumor weight change, dose: 5.0 mg/kg/injection, schedule: Q01DX001 (ip), vehicle: Klucel (hydroxypropylcellulose) (HPC)) 111 % of control.

As for `Nc1nc2c(ncn2C2OC(CO)C(O)C2N)c(=O)[nH]1` (stereo not drawn), the T/C was 79 % of control (endpoint: median tumor weight (est.), dose: 4.5 mg/kg/injection, schedule: Q07DX005 (ip), vehicle: saline with Tween-80); 99 % of control (endpoint: median tumor weight (est.), dose: 9.0 mg/kg/injection, schedule: Q07DX005 (ip), vehicle: saline with Tween-80); 172 % of control (endpoint: median tumor weight (est.), dose: 36.0 mg/kg/injection, schedule: Q07DX005 (ip), vehicle: saline with Tween-80); 106 % of control (endpoint: median tumor weight (est.), dose: 72.0 mg/kg/injection, schedule: Q07DX005 (ip), vehicle: saline with Tween-80).

For the compound `Cc1cc(NS(=O)(=O)c2ccc(N=Nc3cc(N=Nc4ccc(S(=O)(=O)Nc5cc(C)nc(C)n5)cc4)c4c(NC(=O)C(Cl)Cl)cccc4c3OC(=O)C(Cl)Cl)cc2)nc(C)n1` (tested in a mixture with another compound), the T/C reads like this: (endpoint: median tumor weight change, dose: 250.0 mg/kg/injection, schedule: Q01DX001 (ip), vehicle: suspension in saline) 167 % of control; (endpoint: median tumor weight change, dose: 500.0 mg/kg/injection, schedule: Q01DX001 (ip), vehicle: suspension in saline) 65 % of control.

Consider `C[N+](C)(C)c1ncnc2nc[nH]c12`, for which the T/C under setting [11] is 194 % of control, the T/C under setting [12] is 259 % of control and the T/C under setting [13] was 186 % of control.

Regarding `O=c1nc(-c2ccco2)sc(=O)[nH]1`, the T/C (endpoint: median tumor weight change, dose: 31.25 mg/kg/injection, schedule: Q01DX001 (ip), vehicle: Klucel (hydroxypropylcellulose) (HPC)) is 123 % of control; the T/C under setting [10] is 63 % of control; the T/C under setting [5] was 120 % of control; the T/C under setting [6] is 53 % of control.

For the compound `CC12C(=O)C=CCC1=CCC1C2CCC2(O)C(=O)OC3(C)C4CC5(C)C(COC16OC23C5C6=O)C(=O)O4` (stereo not drawn), the T/C is, setting by setting: under setting [6], 96 % of control; under setting [7], 35 % of control.

The record behind these values is PubChem BioAssay AID220 (DTP/NCI, 2004).
